Assay: Contingency table classification of C(t) acceptance range as surrogate for Cavg
Set-up: species or system hypogonadal men
Details: for Percent of Subjects: C(t) in range / Percent of Subjects: C(t) too high / Percent of Subjects: C(t) too low / Percent of Subjects: Cavg in range & C(t) in range / Percent of Subjects: Cavg in range & C(t) too high / Percent of Subjects: Cavg in range & C(t) too low / Percent of Subjects: Cavg too high & C(t) too high / Percent of Subjects: Cavg too low & C(t) in range / Percent of Subjects: Cavg too low & C(t) too low / Percent of Subjects: Cavg too high & C(t) in range: Cavg 300-1000 ng/dL; for Percent of subjects: Cavg in Range F & C(t) in Range F (total of too high and too low): Cavg 300-1000
Text: For the contingency table approach, the number and percentage of subjects that fell into each of the following seven categories were enumerated, for each of the candidate time points, and for each candidate target range for Cavg, and for each candidate acceptance range for C(t). • 1. Subjects with Cavg within range and with C(t) within range • 2. Subjects with Cavg below range and with C(t) below range • 3. Subjects with Cavg above range and with C(t) above range • 4. Subjects with Cavg within range but with C(t) below range • 5. Subjects with Cavg within range but with C(t) above range • 6. Subjects with Cavg below range, but with C(t) within range • 7. Subjects with Cavg above range, but with C(t) within range
If one defines a value as being “within range” as positive, and being “outside of range” as negative, then Group 1 is subjects that are “true positives”, Groups 2 and 3 are “true negatives”, groups 4 and 5 are “false negatives”, and groups 6 and 7 are “false positives”. Groups, 1, 2 and 3 represent successful predictions because C(t) is an appropriate surrogate for Cavg; Groups 4, 5, 6 and 7 are prediction failures because C(t) is an inaccurate surrogate for Cavg.
Correlations and contingency table calculations were performed using built-in functions in the Excel module of Microsoft Office 2003 (Redmond, Wash.). Graphs were produced using the built-in charting capabilities of Excel.

[1] = C(1.5), C(t) acceptance 130-1110

SMILES: CCCCCCCCCCC(=O)O[C@H]1CC[C@H]2[C@@H]3CCC4=CC(=O)CC[C@]4(C)[C@H]3CC[C@]12C [TU, testosterone undecanoate]
- Percent of Subjects: C(t) in range (C(0), C(t) acceptance 80-1000): 87.8%
- Percent of Subjects: C(t) too high (C(0), C(t) acceptance 80-1000): C(t) too high 4.9%
- Percent of Subjects: C(t) too low (C(0), C(t) acceptance 80-1000): 7.3%
- Percent of Subjects: Cavg in range & C(t) in range (C(0), C(t) acceptance 80-1000): 75.6%
- Percent of Subjects: Cavg in range & C(t) too high (C(0), C(t) acceptance 80-1000): 2.4%
- Percent of Subjects: Cavg in range & C(t) too low (C(0), C(t) acceptance 80-1000): 2.4%
- Percent of Subjects: Cavg too high & C(t) too high (C(0), C(t) acceptance 80-1000): 2.4%
- Percent of Subjects: Cavg too low & C(t) in range (C(0), C(t) acceptance 80-1000): 7.3%
- Percent of Subjects: C(t) in range (C(1), C(t) acceptance 130-1000): 85.4%
- Percent of Subjects: C(t) too high (C(1), C(t) acceptance 130-1000): 2.4%
- Percent of Subjects: C(t) too low (C(1), C(t) acceptance 130-1000): 12.2%
- Percent of Subjects: Cavg in range & C(t) in range (C(1), C(t) acceptance 130-1000): 78.0%
- Percent of Subjects: Cavg in range & C(t) too high (C(1), C(t) acceptance 130-1000): 0.0%
- Percent of Subjects: Cavg in range & C(t) too low (C(1), C(t) acceptance 130-1000): 2.4%
- Percent of Subjects: Cavg too high & C(t) too high (C(1), C(t) acceptance 130-1000): 2.4%
- Percent of Subjects: Cavg too low & C(t) in range (C(1), C(t) acceptance 130-1000): 2.4%
- Percent of Subjects: Cavg too low & C(t) too low (C(1), C(t) acceptance 130-1000): 9.8%
- Percent of Subjects: C(t) in range [1]: 90.2%
- Percent of Subjects: C(t) too high [1]: 0.0%
- Percent of Subjects: C(t) too low [1]: 9.8%
- Percent of Subjects: Cavg in range & C(t) in range [1]: 80.5%
- Percent of Subjects: Cavg in range & C(t) too high [1]: 0.0%
- Percent of Subjects: Cavg in range & C(t) too low [1]: 0.0%
- Percent of Subjects: Cavg too high & C(t) in range [1]: 7.3%
- Percent of Subjects: Cavg too high & C(t) too high [1]: 0.0%
- Percent of Subjects: Cavg too low & C(t) in range [1]: 2.4%
- Percent of Subjects: Cavg too low & C(t) too low [1]: 9.8%
- Percent of Subjects: C(t) in range (C(2), C(t) acceptance 150-1200): 90.2%
- Percent of Subjects: C(t) too high (C(2), C(t) acceptance 150-1200): 0.0%
- Percent of Subjects: C(t) too low (C(2), C(t) acceptance 150-1200): 9.8%
- Percent of Subjects: Cavg in range & C(t) in range (C(2), C(t) acceptance 150-1200): 80.5%
- Percent of Subjects: Cavg in range & C(t) too high (C(2), C(t) acceptance 150-1200): 0.0%
- Percent of Subjects: Cavg in range & C(t) too low (C(2), C(t) acceptance 150-1200): 0.0%
- Percent of Subjects: Cavg too high & C(t) in range (C(2), C(t) acceptance 150-1200): 7.3%
- Percent of Subjects: Cavg too high & C(t) too high (C(2), C(t) acceptance 150-1200): 0.0%
- Percent of Subjects: Cavg too low & C(t) in range (C(2), C(t) acceptance 150-1200): 2.4%
- Percent of Subjects: Cavg too low & C(t) too low (C(2), C(t) acceptance 150-1200): 9.8%
- Percent of subjects: Cavg in Range F & C(t) in Range F (total of too high and too low) (C(3), C(t) acceptance 190-1450): 7.3%
- Percent of Subjects: C(t) in range (C(3), C(t) acceptance 190-1500): 90.2%
- Percent of Subjects: C(t) too high (C(3), C(t) acceptance 190-1500): 0.0%
- Percent of Subjects: C(t) too low (C(3), C(t) acceptance 190-1500): 9.8%
- Percent of Subjects: Cavg in range & C(t) in range (C(3), C(t) acceptance 190-1500): 78.0%
- Percent of Subjects: Cavg in range & C(t) too high (C(3), C(t) acceptance 190-1500): 0.0%
- Percent of Subjects: Cavg in range & C(t) too low (C(3), C(t) acceptance 190-1500): 2.4%
- Percent of Subjects: Cavg too high & C(t) in range (C(3), C(t) acceptance 190-1500): 7.3%
- Percent of Subjects: Cavg too high & C(t) too high (C(3), C(t) acceptance 190-1500): 0.0%
- Percent of Subjects: Cavg too low & C(t) in range (C(3), C(t) acceptance 190-1500): 4.9%
- Percent of Subjects: Cavg too low & C(t) too low (C(3), C(t) acceptance 190-1500): 7.3%
- Percent of Subjects: C(t) in range (C(4), C(t) acceptance 250-1700): 82.9%
- Percent of Subjects: C(t) too high (C(4), C(t) acceptance 250-1700): 2.4%
- Percent of Subjects: C(t) too low (C(4), C(t) acceptance 250-1700): 14.6%
- Percent of Subjects: Cavg in range & C(t) in range (C(4), C(t) acceptance 250-1700): 75.6%
- Percent of Subjects: Cavg in range & C(t) too high (C(4), C(t) acceptance 250-1700): 0.0%
- Percent of Subjects: Cavg in range & C(t) too low (C(4), C(t) acceptance 250-1700): 4.9%
- Percent of Subjects: Cavg too high & C(t) in range (C(4), C(t) acceptance 250-1700): 4.9%
- Percent of Subjects: Cavg too high & C(t) too high (C(4), C(t) acceptance 250-1700): 2.4%
- Percent of Subjects: Cavg too low & C(t) in range (C(4), C(t) acceptance 250-1700): 2.4%
- Percent of Subjects: Cavg too low & C(t) too low (C(4), C(t) acceptance 250-1700): 9.8%
- Percent of subjects: Cavg in Range F & C(t) in Range F (total of too high and too low) (C(4), C(t) acceptance 250-1700): 12.2%

— patent US20210220374A1, “METHODS OF TREATING TE[…]” (Clarus Therapeutics, Inc., priority 2013, published 2021)
